Values of other authors, collected in paper PMC7217150, “Synthesis, Modification, and Biological Evaluation of a Library of Novel Water‐Soluble Thiopyridone‐Based Organometallic Complexes and Their Unexpected (Biological) Behavior” (Chemistry (Weinheim an Der Bergstrasse, Germany), 2020).

Assays:
SW480 = settings: SW480, MTT assay, 96 h; cited from earlier work
CH1/PA‐1 = settings: CH1/PA‐1, MTT assay, 96 h; cited from earlier work
[1] = test system: human cancer cell lines CH1/PA‐1, SW480, A549; set-up: method as in PMID 26365319; settings: cited from earlier work
A549 = settings: A549, MTT assay, 96 h; cited from earlier work

SMILES: N.N.[Cl][Pt][Cl] [Cisplatin]
- IC50 (SW480): 3.5 ± 0.3 µM
- IC50 (CH1/PA‐1): 160 ± 30 nM
- activity in CH1/PA‐1 cells relative to SW480 cells [1]: up to 22 times
- IC50 (A549): 1300 ± 400 nM
